Data from patent US20120225889A1, “USE OF MACROCYCLIC LACTONE DERIVATIVES FOR THE TREATMENT OF INFLAMMATORY DISORDERS” (PIRAMAL LIFE SCIENCES LIMITED, priority 2010, published 2012).
Like-named read-outs stand apart in the source and are kept apart here.

Columns and labels:
Type in all cases: cell-based
[1] = system: IL-6; experiment: Screening in LPS stimulated THP-1 cells: IL-6; conditions: Homo sapiens, 24 h, ELISA
Experimental: (§1) IL-6 (BD Biosciences, USA) production by LPS (Escherchia coli 0127:B8, Sigma, USA) in THP-1 cells (ATCC number: TIB202) was designed as in reference, Journal of Immunology, 151, 5631-5638, (1993), the disclosure of which is incorporated by reference for the teaching of the assay.
(§2) THP-1 cells were cultured in RPMI 1640 culture medium (Gibco BRL, UK) containing 100 U/mL penicillin and […] streptomycin, (100× solution, Sigma, USA) containing 10% FBS (JRH Biosciences, USA). 25,000 cells were seeded per well in 96-well plate (Nunc, USA). The cells were differentiated with PMA (Sigma, USA, prepared as 100 μg/mL stock in RPMI and was diluted to 5 ng/mL). The test compound (prepared as 20 mM stock in DMSO and diluted with DMSO to achieve the following final concentrations in the assay: 100, 10, 1, 0.1, 0.01, 0.001 and 0.0001 μM) or vehicle (0.5% DMSO) were added to the cells and the cells were incubated for 30 min at 37° C. LPS (Sigma, USA, prepared as 1 mg/mL stock in PBS) was added to achieve a final concentration of 1 μg/mL. Plates were incubated at 37° C. for 24 h at 5% CO2. Supernatants were harvested, and assayed for TNF-α and IL-6 by ELISA as described by the manufacturer (BD Biosciences, USA). Percent inhibition of cytokine release compared to the control was calculated. The IC50 values were calculated by a nonlinear regression method.

[2] = system: IL-6; experiment: Human monocyte assay (LPS-induced): IL-6; conditions: LPS stimulated human monocytes, 5 h
Source text: (§3) The assay was designed as in reference, Physiological Research, 52, 593-598, (2003), the disclosure of which is incorporated by reference for the teaching of the assay.
(§4) The objective of the assay is to determine whether compounds of the present invention—mediated inhibition of LPS-induced cytokines from monocytic THP-1 cell line translates to physiologically relevant human cells. Accordingly, the effect of compounds of the present invention on LPS—induced cytokine production from freshly isolated human monocytes was ascertained.
Peripheral blood was collected from healthy donors into potassium EDTA vacutainer tubes (BD Biosciences, USA). hPBMCs were isolated using density gradient separation (Histopaque-1077; Sigma, USA) and suspended in assay medium which is RPMI culture medium (Sigma, USA) containing 10% heat inactivated FBS (JRH Biosciences, Australia), 100 U/mL penicillin (Sigma, USA) and […] streptomycin (Sigma, USA). Monocytes in the hPBMCs were counted using a Coulter Counter following which the cells were resuspended at 2×10^5 monocytes/mL of assay medium. A cell suspension containing 2×10^4 monocytes was aliquoted per well of a 96-well plate (Nunc, USA). Subsequently, the hPBMCs were incubated for 4-5 h at 37° C., 5% CO2. During the incubation, the monocytes adhered to the bottom of 96-well plate. Following the incubation, the non-adherent lymphocytes were washed and assay medium was added to adherent monocytes. After 48 h of incubation at 37° C., 5% CO2, monocytes were pre-treated with various concentrations of test compound (prepared as 20 mM stock in DMSO; 1 μL of […] concentrated solution of test compound was dissolved in 200 μL cell suspension to achieve a final concentration of 0.03, 0.1, 0.3, 1, 3, 10, 30 and 100 μM) or vehicle (0.5% DMSO) or 10 μM dexamethasone (standard IL-6 and TNF-α inhibitor, Sigma, USA) for 30 min at 37° C., 5% CO2 and stimulated with 1 μg/mL LPS (Escherchia coli 0111:B4, Sigma, USA). The cells were then incubated for 5 h at 37° C., 5% CO2 following which supernatants were collected, stored at −70° C. and were assayed later for IL-6, and TNF-α by ELISA (OptiEIA ELISA sets, BD Biosciences, USA). The IC50 values were calculated by a nonlinear regression method using Graph Pad software (Prism 3.03).

[3] = system: TNF-α; experiment: Screening in LPS stimulated THP-1 cells: TNF-α; conditions: Homo sapiens, 24 h, ELISA
Experimental: as §1, §2

[4] = system: TNF-α; experiment: Human monocyte assay (LPS-induced): TNF-α; conditions: LPS stimulated human monocytes, 5 h
Source text: as §3, §4
Peripheral blood was collected from healthy donors into potassium EDTA vacutainer tubes (BD Biosciences, USA). hPBMCs were isolated using density gradient separation (Histopaque-1077; Sigma, USA) and suspended in assay medium which is RPMI culture medium (Sigma, USA) containing 10% heat inactivated FBS (JRH Biosciences, Australia), 100 U/mL penicillin (Sigma, USA) and […] streptomycin (Sigma, USA). Monocytes in the hPBMCs were counted using a Coulter Counter following which the cells were resuspended at 2×10^5 monocytes/mL of assay medium. A cell suspension containing 2×10^4 monocytes was aliquoted per well of a 96-well plate (Nunc, USA). Subsequently, the hPBMCs were incubated for 4-5 h at 37° C., 5% CO2. […] The IC50 values were calculated by a nonlinear regression method using Graph Pad software (Prism 3.03).

[5] = system: hPBMCs; experiment: Lymphocyte proliferation assay (T-cell proliferation of normal hPBMCs); conditions: Homo sapiens, tritiated thymidine
Source text: The assay method was designed as in references, The Journal of Immunology, 153, 1-9, (1994), and Clinical and Diagnostic Laboratory Immunology, 7, 687-692, (2000), the disclosure of which is incorporated by reference for the teaching of the assay.
hPBMCs were obtained from healthy donors by centrifugation of heparinized venous blood over Ficoll/Hypaque solution (Histopaque-1077, Sigma, USA). Isolated hPBMCs were suspended in RPMI 1640 culture medium supplemented with 10% FBS and seeded at a density of 50,000 cells/well in a 96-well plate (Nunc, USA). The cells were incubated at 37° C., 5% CO2 for a period of 24 h. These cells were used for the lymphocyte proliferation as well as cytokine release assay.
The plated cells were treated with different concentrations of the test compound (prepared as 20 mM stock in DMSO and diluted with DMSO to achieve the following final concentrations in the assay: 100, 10, 1, 0.1, 0.01, 0.001 and 0.0001 μM) and were incubated for 30 min. The cells were then stimulated with 5 ng/mL PMA (Sigma, USA, prepared as 100 μg/mL stock in RPMI and was diluted to 5 ng/mL) and 5 μg/mL PHA (Sigma, USA, prepared as a 1 mg/mL stock in RPMI). The plates were incubated at 37° C., 5% CO2 for 48 h. The cells were treated overnight with 0.1 μCi of tritiated thymidine per well (obtained from BARC, India; prepared as stock of 1 mCi/mL) and was diluted in KRPH buffer to 10 μCi/mL and […] and was added per well to obtain a final concentration 0.1 μCi/well) and at the end of 48 h, the anti-proliferative effect of the compound was measured using the following formula: […]
Controls consisted of hPBMCs with PHA and PMA (Stimulated), hPBMCs with RPMI (Un-stimulated), hPBMCs with FK506 (positive control, Sigma, USA, prepared as 20 mM stock in DMSO and diluted with DMSO to achieve the following final concentrations in the assay: 100, 10, 1, 0.1, 0.01, 0.001 and 0.0001 μM).

| SMILES | IC50 [1] [nM] | IC50 [2] [nM] | IC50 [3] [nM] | IC50 [4] [nM] | IC50 ([5]; hPBMCs stimulated with PMA and PHA, read-out: Stimulated hPBMC's IC50 (inhibition of cell proliferation)) [nM] | IC50 ([5]; unstimulated hPBMCs, read-out: Unstimulated hPBMC's IC50 (inhibition of cell proliferation)) [nM] |
| --- | --- | --- | --- | --- | --- | --- |
| C/C=C/C(O)C(C)/C=C/C(=O)C(C)C(O)C(C)C1OC(=O)/C(OC)=C/C(C)=C/C(C)C(O)C(CC)C(O)C(C)C/C(C)=C/C=C/C1OC (stereo not drawn) [Compound of example 6, (3Z,5E,13E,15E)-18-((6E,10E)-3,9-Dihydroxy-4,8-dimethyl-5-oxododeca-6,10-dien-2-yl)-9-ethyl-8,10-dihydroxy-3,17-dimethoxy-5,7,11,13-tetramethyloxacyclooctadeca-3,5,13,15-tetraen-2-one] | 100 | 600 | > 100000 | 5000 | – | – |
| C=CC[C@@H]1/C=C(\C)C[C@H](C)C[C@H](OC)[C@H]2O[C@@](O)(C(=O)C(=O)N3CCCC[C@H]3C(=O)O[C@H](/C(C)=C/[C@@H]3CC[C@@H](O)[C@H](OC)C3)[C@H](C)[C@@H](O)CC1=O)[C@H](C)C[C@@H]2OC [FK506, reference compound] | – | – | – | – | < 1 | 2000 |
